# Results: PMC6482847 (Molecular microbiology, 2019)
# Target: T1, FtsZAT (Agrobacterium fabrum, UniProt A9CIB1)
# T1 sequence (A9CIB1 1-583): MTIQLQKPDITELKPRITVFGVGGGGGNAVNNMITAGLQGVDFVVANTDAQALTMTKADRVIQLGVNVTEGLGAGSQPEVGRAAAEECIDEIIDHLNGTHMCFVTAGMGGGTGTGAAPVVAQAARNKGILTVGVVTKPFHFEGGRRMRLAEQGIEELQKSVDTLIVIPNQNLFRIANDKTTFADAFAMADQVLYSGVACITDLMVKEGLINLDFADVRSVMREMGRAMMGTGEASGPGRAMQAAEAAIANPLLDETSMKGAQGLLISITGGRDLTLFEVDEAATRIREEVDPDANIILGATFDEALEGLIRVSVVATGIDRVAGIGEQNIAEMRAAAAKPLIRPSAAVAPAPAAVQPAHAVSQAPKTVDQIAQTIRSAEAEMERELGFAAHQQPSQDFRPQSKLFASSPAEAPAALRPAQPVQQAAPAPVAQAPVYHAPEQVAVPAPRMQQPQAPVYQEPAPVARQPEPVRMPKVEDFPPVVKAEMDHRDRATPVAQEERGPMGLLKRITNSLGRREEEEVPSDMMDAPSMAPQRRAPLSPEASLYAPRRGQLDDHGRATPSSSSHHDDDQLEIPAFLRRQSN
# Test: GTPase assay, inorganic phosphate release
# Assay type: biochemical
# Settings: 2 mM GTP, 8 µM FtsZAT, 2.5 mM MgCl2, 50 mM HEPES-KOH pH 7.2, 50 mM KCl, 0.1 mM EDTA
structure (smiles),measurement,value
Nc1nc2c(ncn2[C@@H]2O[C@H](COP(=O)(O)OP(=O)(O)OP(=O)(O)O)[C@@H](O)[C@H]2O)c(=O)[nH]1 [GTP],"GTPase assay, inorganic phosphate release (colorimetric)",it rapidly releases inorganic phosphate suggesting that GTP is hydrolyzed
